From US6835398B2, “Method of administering high-dose, oral magnesium for treatment of chronic pain syndrome of erythromelalgia” (priority 2001, dated 2004)
Entries after “also recorded” stand apart in the source; their conditions may differ.

Tests used:
[1] = system: patients with erythromelalgia (EM); assay: Tolerability of oral magnesium products in patients (diarrhea, adverse effects, achievable dose)
Description: (§1) Thirteen patients took nonprescription magnesium oxide ([…]) or magnesium-protein (Mg-protein) products in gradually escalating and divided doses totaling 0.6-5 grams/day elemental magnesium under their physicians' supervision.
(§2) Although magnesium's potential benefits for many disorders have been described, patients' lack of tolerance to traditional therapeutic doses has precluded widespread utilization. Indeed, some patients have difficulty tolerating the RDA of magnesium. […] All doses were divided and taken at 4-6 hour intervals with copious amounts of water. All patients had normal renal function, which is required for undertaking magnesium therapy.

[2] = system: patient with CRPS1 / erythromelalgia (EM); assay: Case study patient #1 (CRPS1/EM): pain and symptom response; format: in vivo, human
Description: A magnesium treatment regimen was then investigated.
When the infusions were postponed, small doses of the MgSO4 solution was mixed with water and ingested orally.

[3] = system: patients with erythromelalgia (EM); assay: High-dose oral magnesium therapy in erythromelalgia patients: pain and symptom response; format: in vivo, human; settings: for worsening of EM: one patient
Description: as §1
Specifically, it is most important that the magnesium compound (sulfate, oxide, carbonate, etc.) be either very finely divided or dissolved. […] Ideally, dosing should begin at RDA levels and increased as tolerance increases, until pain and/or symptom reduction is achieved. This level can then be maintained longterm. This pain reduction and long term dosing can begin as low as 600 mg elemental Mg/day and may be increased until gastrointestinal distress resulting from administration is consistent. This may occur at a dosage as high as 5 g/day elemental magnesium or even higher. Preferably, at least 1 gm magnesium/day should be administered, more preferably 1.2 gm, more preferably 1.5 gm, still more preferably 2 gm Mg/day. Still more preferably 2.5 gm Mg/day, and most preferably at least 3 gm Mg/day should be administered. To reduce the likelihood of gastrointestinal distress, daily dosages should be divided into several smaller administrations of not more than 500 mg elemental magnesium, preferably not more than 250 mg, and more preferably not more than […] Magnesium per dose. These can be administered several times daily to achieve the correct total daily dose. Small doses taken every 1-2 hours can be used, as can slightly larger doses taken every 4-6 hours. The frequency and size of doses is not as important as the total daily dose, provided the patient can tolerate the regimen.
as §2

subjects = settings: 250 mg two times daily, oral, one study; cited from earlier work

O=S(=O)([O-])[O-].[Mg+2] [MgSO4, magnesium sulfate]
serum magnesium measurements (patient #1, also two hours after ingesting two grams of MgSO4): normal
repeated chemistries and urine studies (patient #1, up to 12 grams/day orally): normal
adverse effects ([1]; patient #1): only occasional, mild adverse effects (loose stools, blurred vision)
daily dose reached ([1]; patient #1, 50% MgSO4 solution mixed with water, oral, increased very gradually): 12 grams MgSO4/day
pain and symptom response [2]: Pain was completely eliminated; also recorded: nearly total remission from EM

COc1ccc([C@@H]2Sc3ccccc3N(CCN(C)C)C(=O)[C@@H]2OC(C)=O)cc1 [diltiazem]
worsening of EM [3]: worsening
pain and symptom response [2]: greater, but still limited, benefit

[O]=[Mg] [magnesium oxide]
pain and function response ([3]; person with CIPD and severe EM, escalating doses to 4-5 grams/day): significantly less pain and improved function
pain and flaring response ([3]; person with EM, escalating doses to 4-5 grams/day, within two weeks): marked reduction in pain and flaring
dose reached ([1]; one patient unable to tolerate 2 grams of magnesium tablets, blended in water): 4.5 grams/day

[Mg+2] [magnesium]
adverse effects in subjects (subjects): 45.7%
patients who improved ([3]; 4 of the 6 patients who reached doses above 1 gram/day (1.2 to 7 grams/day)): 67%
patients who obtained benefit ([3]; 6 of 8 who reached therapeutic levels, with the two already known cases): 75%
patients who obtained substantial pain reduction and improvement in other symptoms ([3]; escalating divided doses totaling 0.6-5 grams/day elemental magnesium, 13 refractory patients): eight of these thirteen
worsening of EM [3]: worsened
effectiveness and tolerability compared with nifedipine and/or diltiazem ([3]; patients who had previously received nifedipine and/or diltiazem): more effective and better tolerated
patients who reported improvement ([3]; six of 11 EM patients, after 2 months): 55%
